Measurements as given in publication PMC8162404, “Proteomimetic surface fragments distinguish targets by function” (Chemical Science, 2020).

Key:
[1] = molecular target: T1, RecQ-WH (Escherichia coli, UniProt P15043); assay: Pull-down assay with immobilized protein and LSM libraries; set-up: species or system E. coli; details: H14 library; 1:1 binding assumed; read-out: Surface mapping KD (apparent)
T1 construct: coding for residues 408– 523 of E. coli RecQ; made in house; host or cells: E. coli BL21(DE3)
Procedure, shortened: (§1)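 His-tagged protein immobilized on Co-NTA resin (64 µM) in 20 mM HEPES pH 7.4, 150 mM NaCl, equilibrated 30 min at room temperature with foldamer LSM sublibraries at equimolar total concentration. Unbound fractions quantified by HPLC-MS versus protein-free resin control; apparent KD assumes 1:1 binding.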

[2] = molecular target: T2, Gal-1 (Homo sapiens, UniProt P09382); assay: as above; type: binding; details: H14 library; 1:1 binding assumed; read-out: Surface mapping KD (apparent)
T2 construct: made in house; host or cells: E. coli BL21(DE3)
Procedure, shortened: as §1

[3] = molecular target: T3, S100A4 (Homo sapiens, UniProt P26447); assay: as above; type: binding; details: for Kd: H14 library, 1:1 binding assumed, read-out: Surface mapping KD (apparent)
T3 construct: made in house; host or cells: Escherichia coli BL21(DE3)
Procedure, shortened: (§2)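 Buffers were HEPES pH 7.4 with 150 mM NaCl, plus 1 mM TCEP and 1 mM CaCl2 (50 mM HEPES) for S100A4 and S100B, 1 mM TCEP for Gal-1, and no additive for RecQ-WH. Immobilized protein at 64 µM was equilibrated 30 min with the LSM sublibrary, and unbound probes were measured by LC-MS.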

[4] = molecular target: T4, S100B (Homo sapiens, UniProt P04271); assay: as above; type: binding; details: for Kd: H14 library, 1:1 binding assumed, read-out: Surface mapping KD (apparent)
T4 construct: made in house; host or cells: Escherichia coli BL21(DE3)
T4 sequence (P04271 1-92): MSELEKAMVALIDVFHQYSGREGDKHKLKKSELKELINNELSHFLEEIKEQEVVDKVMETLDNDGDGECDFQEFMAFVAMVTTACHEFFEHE
Procedure, shortened: as §2

[5] = molecular target: T4, S100B; assay: Competition pull-down with native ligand RSK1 (689–735); type: binding; details: H14 library; competitor peptide 200 µM; read-out: Surface mapping KD (apparent), competition
[6] = molecular target: T5, CaM (Bos taurus, UniProt P62157); assay: Competition pull-down with native ligand TRPV1-Ct15; type: binding, bovine; details: H14 library; competitor peptide 200 µM; read-out: Surface mapping KD (apparent), competition
T5 construct: made in house; host or cells: E. coli BL21 (DE3)

[7] = molecular target: T1, RecQ-WH; assay: Competition pull-down with native ligand SSB-Ct8; type: binding, E. coli; details: H14 library; competitor peptide 200 µM; read-out: Surface mapping KD (apparent), competition
[8] = molecular target: T3, S100A4; assay: Competition pull-down with native ligand NMIIA (1893–1923); type: binding; details: H14 library; competitor peptide 200 µM; read-out: Surface mapping KD (apparent), competition
[9] = molecular target: T5, CaM; assay: Pull-down assay with immobilized protein and LSM libraries; type: binding, bovine; details: H14 library; 1:2 stoichiometry assumed; read-out: Surface mapping KD (apparent)
Procedure, shortened: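 His-tagged protein immobilized on Co-NTA resin, equilibrated 30 min at room temperature with LSM sublibraries (64 members, […]), equimolar protein to total probe. CaM buffer: 20 mM HEPES pH 7.4, 150 mM NaCl, 5 mM CaCl2. Bound fractions from HPLC-MS loss of unbound probe versus protein-free resin control; Kd derived.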

[10] = molecular target: T2, Gal-1; assay: Competition pull-down with lactose; type: binding; details: H14 library; lactose 10 mM; read-out: Surface mapping KD (apparent), competition
Procedure, shortened: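 His6-tagged proteins immobilized on Co-NTA resin at 64 µM final with 64-member LSM foldamer sublibraries (1 M each, as printed) in pH 7.4 HEPES/NaCl buffers (Ca2+/TCEP per target), 30 min RT; competitor peptides 200 µM final, lactose 10 mM for Gal-1. Bound fractions from LC-MS loss vs protein-free resin; KD assuming 1:1 binding.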

[11] = H14 probes selected for validation

T1 sequence (P15043 408-523): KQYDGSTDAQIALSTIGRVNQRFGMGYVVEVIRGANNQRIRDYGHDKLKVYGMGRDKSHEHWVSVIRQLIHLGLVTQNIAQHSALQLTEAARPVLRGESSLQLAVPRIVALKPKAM
T2 sequence (P09382 whole entry): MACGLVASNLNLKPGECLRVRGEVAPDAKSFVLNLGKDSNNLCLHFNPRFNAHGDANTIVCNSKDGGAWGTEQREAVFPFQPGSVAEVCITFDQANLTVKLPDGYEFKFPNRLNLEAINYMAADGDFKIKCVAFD
T3 sequence (P26447 whole entry): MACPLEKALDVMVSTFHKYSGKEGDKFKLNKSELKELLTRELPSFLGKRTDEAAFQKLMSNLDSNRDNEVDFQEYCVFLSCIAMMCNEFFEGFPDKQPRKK

SMILES	Kd [1]	Kd [2]	Kd [3]	Kd [4]	Kd [5]	Kd [6]	Kd [7]	Kd [8]	Kd [9]	Kd [10]	Affinity class of probe (high, medium, low) in pull-down [3, 11]	Affinity class of probe (high, medium, low) in pull-down [4, 11]
CC(C)C[C@@H](CC(=O)N[C@H]1CCCC[C@@H]1C(=O)N[C@H]1CCCC[C@@H]1C(=O)N[C@H](CC(=O)N[C@H]1CCCC[C@@H]1C(N)=O)Cc1ccccc1)NC(=O)[C@H]1CCCC[C@@H]1N [H14 LF]	186 µM	25 µM	3 µM	11 µM	71 µM	162 µM	439 µM	140 µM	11 µM	43 µM		
CC[C@H](C)[C@@H](CC(=O)N[C@H]1CCCC[C@@H]1C(N)=O)NC(=O)[C@H]1CCCC[C@@H]1NC(=O)[C@H]1CCCC[C@@H]1NC(=O)C[C@H](CC(C)C)NC(=O)[C@H]1CCCC[C@@H]1N [H14 LI]	160 µM	24 µM	2 µM	19 µM	147 µM	280 µM	355 µM	101 µM	16 µM	50 µM		
CC(C)C[C@@H](CC(=O)N[C@H]1CCCC[C@@H]1C(N)=O)NC(=O)[C@H]1CCCC[C@@H]1NC(=O)[C@H]1CCCC[C@@H]1NC(=O)C[C@H](CC(C)C)NC(=O)[C@H]1CCCC[C@@H]1N [H14 LL]	206 µM	17 µM	1 µM	28 µM	147 µM	276 µM	253 µM	117 µM	16 µM	32 µM		
CSCC[C@@H](CC(=O)N[C@H]1CCCC[C@@H]1C(N)=O)NC(=O)[C@H]1CCCC[C@@H]1NC(=O)[C@H]1CCCC[C@@H]1NC(=O)C[C@H](CC(C)C)NC(=O)[C@H]1CCCC[C@@H]1N [H14 LM]	233 µM	138 µM	4 µM	67 µM	163 µM	468 µM		318 µM	14 µM	334 µM		
CC[C@H](C)[C@@H](CC(=O)N[C@H]1CCCC[C@@H]1C(N)=O)NC(=O)[C@H]1CCCC[C@@H]1NC(=O)[C@H]1CCCC[C@@H]1NC(=O)C[C@H](CCSC)NC(=O)[C@H]1CCCC[C@@H]1N [H14 MI]	226 µM	145 µM	11 µM	62 µM	269 µM	435 µM		447 µM	3 µM	235 µM		
CSCC[C@@H](CC(=O)N[C@H]1CCCC[C@@H]1C(=O)N[C@H]1CCCC[C@@H]1C(=O)N[C@H](CC(=O)N[C@H]1CCCC[C@@H]1C(N)=O)CC(C)C)NC(=O)[C@H]1CCCC[C@@H]1N [H14 ML]	226 µM	145 µM	11 µM	62 µM	269 µM	435 µM		447 µM	3 µM	235 µM		
CC(C)[C@@H](CC(=O)N[C@H]1CCCC[C@@H]1C(=O)N[C@H]1CCCC[C@@H]1C(=O)N[C@H](CC(=O)N[C@H]1CCCC[C@@H]1C(N)=O)Cc1ccccc1)NC(=O)[C@H]1CCCC[C@@H]1N [H14 VF]	347 µM	93 µM	3 µM	20 µM	91 µM	239 µM		474 µM	5 µM	193 µM		
CC(C)C[C@@H](CC(=O)N[C@H]1CCCC[C@@H]1C(N)=O)NC(=O)[C@H]1CCCC[C@@H]1NC(=O)[C@H]1CCCC[C@@H]1NC(=O)C[C@@H](NC(=O)[C@H]1CCCC[C@@H]1N)C(C)C [H14 VL]	366 µM	66 µM	3 µM	43 µM	180 µM			246 µM	13 µM	220 µM	high	medium
